Laboratory results: US20160208297A1, “OMEGA3 UNSATURATED FATTY ACID ENZYME AND METHOD FOR PRODUCING EICOSAPENTAENOIC ACID” (KYOTO UNIVERSITY, priority 2013, published 2016)

B1: polypeptide (SEQ ID NO: 2): ω3 desaturase derived from Pythium folliculosum or Pythium torulosum, encoded by cDNA SEQ ID NO: 1 (protein, listed as Pythium folliculosum)
chain: MADVNTSSPAAAPVATPEPFEFPSLTELKRSIPARYFESSAPRSLLFTARAFAFAYAFGAALFHARQLPLVAEHAALDALLCAAYTFLQGVNMWGFFTIGHDCGHGSFSRYHLLNFVVGTLTHSLILTPYEAWKLSHRLHHKNTGNIDQDEIFYPQRKETVNDPARKMVLSFGLAWWIYEIIGFPPRTEEHTELRDSLFSRHLITGSLSVLAHLACVMLAFNLTYVLGWATMGVYYWAPLFVFASMLVITTFLHHNDEETPWYADSEWTYVKGNLSSVDRDYGWVVNHLSHNIGTHQVHHLFPIIPHYNLNGATEYFRKAFPHLVRKSDDRILPAFVRVGLLYVKYGVIENDAKHFSLKDNREVLTKRA
modifications: Omega-3 desaturase

Test system: polypeptide (SEQ ID NO: 2) ω3 desaturase
Experiment: conversion of added ω6 unsaturated fatty acids to ω3 unsaturated fatty acids by yeast transformant expressing the cDNA (SEQ ID NO: 1)
Assay type: cell-based, Pythium folliculosum
Conditions: for conversion into the corresponding ω3 unsaturated fatty acid / Conversion rate (%): Saccharomyces cerevisiae InvSc1 transformant, 28° C., two days; for Conversion rate (%): substrate added to medium, [product amount/(substrate amount + product amount)] × 100
Experimental: The cDNA (SEQ ID NO: 1) prepared in the above was integrated into a yeast expression vector, pYE22m (Biosci. Biotech. Biochem., 1995, 59: 1221-1228). The vector was introduced into Saccharomyces cerevisiae InvSc1 strain (tryptophan auxotrophy […]) by an electroporation method to obtain a transformant. The transformant was cultured in YPD culture medium (polypeptone 20 g, yeast extract 10 g, adenine 0.4 g, agar 20 g and glucose 20 g were diluted in 1,000 mL of water) at 28° C. for one day to express the polypeptide from cDNA integrated therein. Note that ω3 desaturase inherent in the oleaginous yeast is not expressed in this culture condition. Subsequently, to the culture medium, an ω6 unsaturated fatty acid: linoleic acid (LA, 18: 2n-6), γ-linolenic acid (GLA, 18: 3n-6), dihomo-γ-linolenic acid (DGLA, 20: 3n-6), or arachidonic acid (ARA, 20: 4n-6) was added and cultured at 28° C. for two days. Thereafter the amounts of the corresponding ω3 unsaturated fatty acid: α-linolenic acid (ALA, 18: 3n-3), stearidonic acid (SDA, 18: 4n-3), eicosatetraenoic acid (ETA, 20: 4n-3) or eicosapentaenoic acid (EPA, 20: 5n-3) produced by ω3 unsaturation were measured.

| Molecule | conversion into the corresponding ω3 unsaturated fatty acid | Conversion rate (%) | ω3 desaturation activity (expressed in Saccharomyces cerevisiae InvSc1, 28° C.) |
| --- | --- | --- | --- |
| CCCCC/C=C\C/C=C\C/C=C\C/C=C\CCCC(=O)O [AA, arachidonic acid] | converted into the corresponding ω3 unsaturated fatty acids | 7.86 | – |
| CCCCC/C=C\C/C=C\C/C=C\CCCCCCC(=O)O [DGLA, dihomo-γ-linolenic acid] | converted into the corresponding ω3 unsaturated fatty acids | 6.90 | – |
| CCCCC/C=C\C/C=C\C/C=C\CCCCC(=O)O [GLA, γ-linolenic acid] | converted into the corresponding ω3 unsaturated fatty acids | 8.36 | – |
| CCCCC/C=C\C/C=C\CCCCCCCC(=O)O [LA, linoleic acid] | converted into the corresponding ω3 unsaturated fatty acids | 3.03 | – |
| B1 | – | – | an enzyme having ω3 desaturation activity at normal temperature |
